Test results as given in ChEMBL document CHEMBL5038588 (J Med Chem, 2021).
Values belong to the compound of their own block, whether it stands above or below them.

Assays:
BaF3 [1] = assay: Inhibition of cell proliferation in mouse BaF3 cells expressing BCR-ABL T315I mutant assessed as cell viability at 100 uM measured after 48 hrs by trypan blue based assay (RVB=100%); format: functional; details: read-out: Activity
KU812 cell line = assay: Cytotoxicity against human KU812 cells assessed as inhibition of cell growth measured after 72 hrs by MTT assay; format: functional, cell-based; details: KU812, 72 h
U-937 = assay: Cytotoxicity against human U-937 cells assessed as inhibition of cell growth measured after 72 hrs by MTT assay; format: functional, cell-based; details: U-937, 72 h
Jurkat = assay: Cytotoxicity against human Jurkat cells assessed as inhibition of cell growth measured after 72 hrs by MTT assay; format: functional, cell-based
BaF3 [2] = assay: cells; details: Mus musculus, BaF3, 72 h
BaF3 [3] = assay: cells; details: Mus musculus, BaF3, 48 h
K562 [4] = assay: cells; details: Homo sapiens, K562, 72 h
[5] = target: Voltage-gated inwardly rectifying potassium channel KCNH2 (Homo sapiens, UniProt Q12809); assay: Inhibition of hERG; format: toxicity
Salmonella typhimurium [6] = assay: Mutagenecity in Salmonella typhimurium TA97a at 0.5 to 312.5 ug/ml incubated for 42 to 72 hrs in presence of S9 fraction by Ames test; format: toxicity, organism-based; details: salmonella enterica subsp. enterica serovar typhimurium, dose lower 0.5 µg/ml, time lower 42 hrs, dose upper 312.5 µg/ml, time upper 72 hrs
Salmonella typhimurium [7] = assay: Mutagenecity in Salmonella typhimurium TA98 at 0.5 to 312.5 ug/ml incubated for 42 to 72 hrs in presence of S9 fraction by Ames test; format: toxicity, organism-based; details: salmonella enterica subsp. enterica serovar typhimurium, dose lower 0.5 µg/ml, time lower 42 hrs, dose upper 312.5 µg/ml, time upper 72 hrs
Salmonella typhimurium [8] = assay: Mutagenecity in Salmonella typhimurium TA102 at 0.5 to 312.5 ug/ml incubated for 42 to 72 hrs in presence of S9 fraction by Ames test; format: toxicity, organism-based; details: salmonella enterica subsp. enterica serovar typhimurium, dose lower 0.5 µg/ml, time lower 42 hrs, dose upper 312.5 µg/ml, time upper 72 hrs
Salmonella typhimurium [9] = assay: Mutagenecity in Salmonella typhimurium TA100 at 0.5 to 312.5 ug/ml incubated for 42 to 72 hrs in presence of S9 fraction by Ames test; format: toxicity, organism-based; details: salmonella enterica subsp. enterica serovar typhimurium, dose lower 0.5 µg/ml, time lower 42 hrs, dose upper 312.5 µg/ml, time upper 72 hrs
[10] = Genotoxicity in ICR mouse bone marrow at 25 to 100 mg/kg administered via oral gavage and measured after 24 to 48 hrs by micronucleus assay; format: toxicity, organism-based; details: in vivo, dose lower 25 mg/kg, time lower 24 hrs, dose upper 100 mg/kg, time upper 48 hrs
[11] = Toxicity in ICR mouse assessed as maximum tolerated dose administered as single oral dose for 14 days; details: in vivo, time 14 day
[12] = Tmax in ICR mouse at 15 mg/kg, po measured upto 24 hrs by LC/MS/MS analysis; format: ADME, organism-based; details: in vivo
[13] = Tmax in ICR mouse at 5 mg/kg, iv measured upto 24 hrs by LC/MS/MS analysis; format: ADME, organism-based; details: in vivo
[14] = Cmax in ICR mouse at 15 mg/kg, po measured upto 24 hrs by LC/MS/MS analysis; format: ADME, organism-based; parameters: route oral, dose 15 mg/kg, time <=24; details: in vivo
[15] = Cmax in ICR mouse at 5 mg/kg, iv measured upto 24 hrs by LC/MS/MS analysis; format: ADME, organism-based; parameters: route intravenous, dose 5 mg/kg, time <=24; details: in vivo
[16] = AUC (0 to t) in ICR mouse at 15 mg/kg, po measured upto 24 hrs by LC/MS/MS analysis; format: ADME, organism-based; parameters: route oral, dose 15 mg/kg, time <=24; details: in vivo
[17] = AUC (0 to t) in ICR mouse at 5 mg/kg, iv measured upto 24 hrs by LC/MS/MS analysis; format: ADME, organism-based; parameters: route intravenous, dose 5 mg/kg, time <=24; details: in vivo
[18] = AUC (0 to infinity) in ICR mouse at 15 mg/kg, po measured upto 24 hrs by LC/MS/MS analysis; format: ADME, organism-based; parameters: route oral, dose 15 mg/kg, time <=24; details: in vivo
[19] = AUC (0 to infinity) in ICR mouse at 5 mg/kg, iv measured upto 24 hrs by LC/MS/MS analysis; format: ADME, organism-based; parameters: route intravenous, dose 5 mg/kg, time <=24; details: in vivo
[20] = MRT in ICR mouse at 15 mg/kg, po measured upto 24 hrs by LC/MS/MS analysis; format: ADME, organism-based; details: in vivo
[21] = MRT in ICR mouse at 5 mg/kg, iv measured upto 24 hrs by LC/MS/MS analysis; format: ADME, organism-based; details: in vivo
[22] = Half life in ICR mouse at 15 mg/kg, po measured upto 24 hrs by LC/MS/MS analysis; format: ADME, organism-based; details: in vivo
[23] = Half life in ICR mouse at 5 mg/kg, iv measured upto 24 hrs by LC/MS/MS analysis; format: ADME, organism-based; details: in vivo
[24] = Clearance in ICR mouse at 5 mg/kg, iv measured upto 24 hrs by LC/MS/MS analysis; format: ADME, organism-based; details: in vivo
[25] = Volume of distribution at steady state in ICR mouse at 5 mg/kg, iv measured upto 24 hrs by LC/MS/MS analysis; format: ADME, organism-based; details: in vivo, read-out: Vdss
[26] = Oral bioavailability in ICR mouse at 15 mg/kg measured upto 24 hrs by LC/MS/MS analysis; format: ADME, organism-based; details: in vivo
[27] = target: Proto-oncogene tyrosine-protein kinase Src (Homo sapiens, UniProt P12931); assay: Inhibition of human c-SRC using poly [Glu:Tyr] as substrate incubated for 30 mins followed by 33P-ATP addition and measured after 2 hrs by liquid scintillation counter method
[28] = target: T1, Receptor-type tyrosine-protein kinase FLT3 (Homo sapiens, UniProt P36888); assay: Inhibition of human FLT3 using EAIYAAPFAKKK as substrate incubated for 30 mins followed by 33P-ATP addition and measured after 2 hrs by liquid scintillation counter method
T1 sequence (P36888 whole entry): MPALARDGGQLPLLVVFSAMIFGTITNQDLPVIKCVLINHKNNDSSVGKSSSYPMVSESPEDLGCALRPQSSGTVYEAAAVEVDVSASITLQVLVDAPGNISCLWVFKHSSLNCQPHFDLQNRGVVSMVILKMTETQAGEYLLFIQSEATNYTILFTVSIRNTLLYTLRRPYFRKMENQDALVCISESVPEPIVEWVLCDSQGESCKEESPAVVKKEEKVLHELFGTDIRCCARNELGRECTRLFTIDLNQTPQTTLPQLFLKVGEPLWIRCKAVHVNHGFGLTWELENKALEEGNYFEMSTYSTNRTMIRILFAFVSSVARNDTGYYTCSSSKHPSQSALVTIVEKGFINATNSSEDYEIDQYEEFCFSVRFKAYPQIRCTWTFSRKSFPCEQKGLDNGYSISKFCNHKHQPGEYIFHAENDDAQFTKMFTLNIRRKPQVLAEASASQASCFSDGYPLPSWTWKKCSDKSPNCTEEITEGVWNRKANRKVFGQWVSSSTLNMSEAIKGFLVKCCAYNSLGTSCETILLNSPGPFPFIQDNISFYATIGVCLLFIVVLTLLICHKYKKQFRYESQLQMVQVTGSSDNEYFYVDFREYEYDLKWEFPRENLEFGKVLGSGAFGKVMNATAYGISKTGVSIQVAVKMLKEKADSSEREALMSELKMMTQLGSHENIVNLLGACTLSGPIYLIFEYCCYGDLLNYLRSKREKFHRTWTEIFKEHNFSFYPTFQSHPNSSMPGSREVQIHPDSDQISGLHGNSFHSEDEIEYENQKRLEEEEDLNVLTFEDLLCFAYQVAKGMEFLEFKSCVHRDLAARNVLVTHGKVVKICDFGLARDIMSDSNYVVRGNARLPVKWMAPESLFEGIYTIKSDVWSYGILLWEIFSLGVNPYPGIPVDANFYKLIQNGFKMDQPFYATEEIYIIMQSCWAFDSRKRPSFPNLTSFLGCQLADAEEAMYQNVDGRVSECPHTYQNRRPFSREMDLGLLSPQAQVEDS

[29] = target: Vascular endothelial growth factor receptor 2 (Homo sapiens, UniProt P35968); assay: Inhibition of human KDR/VEGFR2 using poly [Glu:Tyr] as substrate incubated for 30 mins followed by 33P-ATP addition and measured after 2 hrs by liquid scintillation counter method
[30] = target: Tyrosine-protein kinase Lyn (Homo sapiens, UniProt P07948); assay: Inhibition of human LYN using poly [Glu:Tyr] as substrate incubated for 30 mins followed by 33P-ATP addition and measured after 2 hrs by liquid scintillation counter method
[31] = target: Platelet-derived growth factor receptor alpha (Homo sapiens, UniProt P16234); assay: Inhibition of human PDGFRa using poly [Glu:Tyr] as substrate incubated for 30 mins followed by 33P-ATP addition and measured after 2 hrs by liquid scintillation counter method
Salmonella typhimurium [32] = assay: Mutagenecity in Salmonella typhimurium TA1535 at 0.5 to 312.5 ug/ml incubated for 42 to 72 hrs in presence of S9 fraction by Ames test; format: toxicity, organism-based; details: salmonella enterica subsp. enterica serovar typhimurium, dose lower 0.5 µg/ml, time lower 42 hrs, dose upper 312.5 µg/ml, time upper 72 hrs
K562 [33] = details: Homo sapiens
BaF3 [34] = assay: animal or person; details: Mus musculus, BaF3, po, 360 h, read-out: TGI
[35] = Toxicity in BALB/c nude mouse xenografted with BaF3 cells expressing BCR-ABL T315I mutant assessed as effect on body weight at 2.5 to 10 mg/kg, po administered once daily for 15 days; format: organism-based; details: in vivo, 360 h, dose 2.5-10 mg/kg, time 15 day

Chain of Vascular endothelial growth factor receptor 2 (P35968 whole entry): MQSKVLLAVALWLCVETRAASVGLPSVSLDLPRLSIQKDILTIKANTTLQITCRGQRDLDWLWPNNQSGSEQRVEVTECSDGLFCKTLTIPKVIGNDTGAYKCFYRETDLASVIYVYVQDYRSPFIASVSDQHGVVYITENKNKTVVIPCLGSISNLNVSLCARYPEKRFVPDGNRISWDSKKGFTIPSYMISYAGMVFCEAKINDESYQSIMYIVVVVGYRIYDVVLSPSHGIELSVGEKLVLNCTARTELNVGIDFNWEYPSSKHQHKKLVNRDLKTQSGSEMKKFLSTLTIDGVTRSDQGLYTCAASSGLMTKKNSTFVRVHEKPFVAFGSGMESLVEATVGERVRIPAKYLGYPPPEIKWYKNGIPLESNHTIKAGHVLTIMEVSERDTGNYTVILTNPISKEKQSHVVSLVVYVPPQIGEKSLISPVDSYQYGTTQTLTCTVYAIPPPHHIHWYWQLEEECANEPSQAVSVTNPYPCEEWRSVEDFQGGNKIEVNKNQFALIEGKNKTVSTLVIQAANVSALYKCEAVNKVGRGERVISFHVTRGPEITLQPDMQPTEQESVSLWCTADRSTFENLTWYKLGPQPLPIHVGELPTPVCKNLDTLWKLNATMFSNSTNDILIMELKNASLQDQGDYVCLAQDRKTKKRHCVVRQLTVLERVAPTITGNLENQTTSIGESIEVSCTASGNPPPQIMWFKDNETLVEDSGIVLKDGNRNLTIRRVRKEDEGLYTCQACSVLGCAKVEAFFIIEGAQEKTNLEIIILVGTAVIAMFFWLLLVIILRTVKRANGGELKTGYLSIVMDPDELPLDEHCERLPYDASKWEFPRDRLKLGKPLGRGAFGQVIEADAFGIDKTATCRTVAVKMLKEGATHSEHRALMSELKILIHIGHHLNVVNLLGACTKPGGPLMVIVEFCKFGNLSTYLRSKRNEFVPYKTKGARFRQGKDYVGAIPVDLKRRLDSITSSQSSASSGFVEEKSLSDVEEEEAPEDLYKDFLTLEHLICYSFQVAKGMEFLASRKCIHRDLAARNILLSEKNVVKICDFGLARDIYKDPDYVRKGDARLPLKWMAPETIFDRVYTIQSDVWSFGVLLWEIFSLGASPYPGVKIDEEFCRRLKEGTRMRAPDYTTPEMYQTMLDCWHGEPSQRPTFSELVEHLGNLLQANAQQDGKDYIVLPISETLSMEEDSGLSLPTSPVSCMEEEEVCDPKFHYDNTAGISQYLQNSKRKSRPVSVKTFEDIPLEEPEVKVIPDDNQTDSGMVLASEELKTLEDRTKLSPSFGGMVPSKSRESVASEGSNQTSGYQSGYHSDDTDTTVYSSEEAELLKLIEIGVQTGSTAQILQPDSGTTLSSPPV
Chain of Tyrosine-protein kinase Lyn (P07948 whole entry): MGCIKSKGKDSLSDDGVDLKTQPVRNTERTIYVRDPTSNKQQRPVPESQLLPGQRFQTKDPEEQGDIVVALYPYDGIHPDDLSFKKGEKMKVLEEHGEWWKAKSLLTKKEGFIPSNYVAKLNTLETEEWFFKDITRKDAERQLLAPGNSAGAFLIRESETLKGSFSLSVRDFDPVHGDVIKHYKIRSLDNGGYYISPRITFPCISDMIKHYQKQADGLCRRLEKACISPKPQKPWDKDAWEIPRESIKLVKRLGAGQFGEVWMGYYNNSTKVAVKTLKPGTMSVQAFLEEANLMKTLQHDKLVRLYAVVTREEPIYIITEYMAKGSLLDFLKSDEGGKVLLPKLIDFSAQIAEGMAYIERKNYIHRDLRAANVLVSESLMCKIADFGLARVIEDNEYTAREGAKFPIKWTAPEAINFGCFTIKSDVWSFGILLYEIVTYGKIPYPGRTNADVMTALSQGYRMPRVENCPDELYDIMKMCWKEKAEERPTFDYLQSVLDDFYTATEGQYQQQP
Chain of Platelet-derived growth factor receptor alpha (P16234 whole entry): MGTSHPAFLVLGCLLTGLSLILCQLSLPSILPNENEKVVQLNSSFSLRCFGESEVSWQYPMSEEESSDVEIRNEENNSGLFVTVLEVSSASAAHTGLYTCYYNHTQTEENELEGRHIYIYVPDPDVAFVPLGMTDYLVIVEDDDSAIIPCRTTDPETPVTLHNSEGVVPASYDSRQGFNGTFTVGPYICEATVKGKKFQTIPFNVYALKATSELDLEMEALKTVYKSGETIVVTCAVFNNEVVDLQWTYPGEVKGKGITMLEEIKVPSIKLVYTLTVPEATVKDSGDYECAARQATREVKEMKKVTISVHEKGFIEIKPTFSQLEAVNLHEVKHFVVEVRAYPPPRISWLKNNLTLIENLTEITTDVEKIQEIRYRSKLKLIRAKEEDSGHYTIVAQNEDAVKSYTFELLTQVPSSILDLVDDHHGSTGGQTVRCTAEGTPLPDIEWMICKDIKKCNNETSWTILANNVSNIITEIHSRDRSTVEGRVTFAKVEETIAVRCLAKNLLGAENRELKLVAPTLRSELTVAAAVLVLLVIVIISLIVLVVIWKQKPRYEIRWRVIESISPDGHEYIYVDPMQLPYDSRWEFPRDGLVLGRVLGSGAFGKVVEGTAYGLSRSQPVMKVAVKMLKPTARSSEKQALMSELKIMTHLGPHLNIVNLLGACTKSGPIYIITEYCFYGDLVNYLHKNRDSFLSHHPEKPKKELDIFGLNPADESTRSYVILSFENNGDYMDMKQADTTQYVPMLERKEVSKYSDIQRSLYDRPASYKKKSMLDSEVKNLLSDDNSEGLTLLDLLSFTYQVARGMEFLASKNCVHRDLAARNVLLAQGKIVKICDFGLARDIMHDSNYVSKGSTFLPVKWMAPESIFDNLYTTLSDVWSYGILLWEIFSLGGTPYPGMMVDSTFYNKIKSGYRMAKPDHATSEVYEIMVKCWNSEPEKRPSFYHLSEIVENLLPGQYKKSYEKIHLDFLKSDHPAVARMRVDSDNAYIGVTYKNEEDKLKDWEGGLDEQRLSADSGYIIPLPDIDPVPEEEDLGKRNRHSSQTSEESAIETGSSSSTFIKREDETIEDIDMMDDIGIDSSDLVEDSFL
Chain of Voltage-gated inwardly rectifying potassium channel KCNH2 (Q12809 whole entry): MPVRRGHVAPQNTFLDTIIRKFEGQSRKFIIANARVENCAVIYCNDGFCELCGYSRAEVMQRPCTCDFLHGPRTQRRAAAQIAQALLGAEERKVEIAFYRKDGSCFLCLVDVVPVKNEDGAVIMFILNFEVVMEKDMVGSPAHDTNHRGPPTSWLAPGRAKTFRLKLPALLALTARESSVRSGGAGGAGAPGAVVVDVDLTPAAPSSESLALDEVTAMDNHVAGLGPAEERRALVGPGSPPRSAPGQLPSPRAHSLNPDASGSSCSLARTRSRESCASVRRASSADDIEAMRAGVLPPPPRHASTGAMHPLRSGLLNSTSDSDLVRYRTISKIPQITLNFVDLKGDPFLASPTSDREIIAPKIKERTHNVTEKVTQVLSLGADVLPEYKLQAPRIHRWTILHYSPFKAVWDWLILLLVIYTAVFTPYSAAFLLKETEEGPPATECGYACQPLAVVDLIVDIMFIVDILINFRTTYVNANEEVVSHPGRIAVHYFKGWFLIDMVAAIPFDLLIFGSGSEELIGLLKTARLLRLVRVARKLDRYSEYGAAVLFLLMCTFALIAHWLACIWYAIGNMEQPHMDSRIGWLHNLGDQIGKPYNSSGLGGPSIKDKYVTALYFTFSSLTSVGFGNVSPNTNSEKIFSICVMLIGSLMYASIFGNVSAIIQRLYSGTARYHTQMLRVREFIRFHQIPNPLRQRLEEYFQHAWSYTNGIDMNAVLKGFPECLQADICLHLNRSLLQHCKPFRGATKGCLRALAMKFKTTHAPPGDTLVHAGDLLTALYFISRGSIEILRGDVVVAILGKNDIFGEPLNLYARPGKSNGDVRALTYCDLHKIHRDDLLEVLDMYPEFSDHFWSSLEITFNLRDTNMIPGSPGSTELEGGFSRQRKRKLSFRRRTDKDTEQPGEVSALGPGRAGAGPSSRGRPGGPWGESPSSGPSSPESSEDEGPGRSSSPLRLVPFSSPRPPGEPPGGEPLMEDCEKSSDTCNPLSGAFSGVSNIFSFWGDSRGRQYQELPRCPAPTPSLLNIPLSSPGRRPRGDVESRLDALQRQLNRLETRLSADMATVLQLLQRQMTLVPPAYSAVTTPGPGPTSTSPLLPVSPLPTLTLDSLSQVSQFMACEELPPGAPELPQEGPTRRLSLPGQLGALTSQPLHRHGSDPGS
Chain of Proto-oncogene tyrosine-protein kinase Src (P12931 2-536 limits assumed): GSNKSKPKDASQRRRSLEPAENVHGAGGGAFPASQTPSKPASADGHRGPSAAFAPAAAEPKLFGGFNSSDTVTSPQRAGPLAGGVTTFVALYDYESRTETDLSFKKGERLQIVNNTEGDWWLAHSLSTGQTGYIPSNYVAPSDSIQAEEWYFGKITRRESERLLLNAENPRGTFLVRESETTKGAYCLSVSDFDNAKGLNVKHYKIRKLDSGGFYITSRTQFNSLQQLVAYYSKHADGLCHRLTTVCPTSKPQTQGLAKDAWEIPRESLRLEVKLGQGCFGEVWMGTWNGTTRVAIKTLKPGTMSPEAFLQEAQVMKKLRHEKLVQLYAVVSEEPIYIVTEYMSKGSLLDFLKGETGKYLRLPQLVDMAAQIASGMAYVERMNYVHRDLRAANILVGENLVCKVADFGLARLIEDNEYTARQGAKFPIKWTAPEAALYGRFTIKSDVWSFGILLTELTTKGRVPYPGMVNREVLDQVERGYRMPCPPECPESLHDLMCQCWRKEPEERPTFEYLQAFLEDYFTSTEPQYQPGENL

Compound: Cc1ccc(C(=O)Nc2ccc3c(c2)C(F)(F)C(N2CCN(C)CC2)C3)cc1C#Cc1cnc2cccnn12 (centres undefined)
viability at 100 µM (BaF3 [1]): 91.5%

IC50 (BaF3 [2]): 11.8 nM
IC50 (BaF3 [3]): > 100 nM
IC50 (K562 [4]): 1.8 nM
Compound: Cc1cn(-c2cc(NC(=O)c3ccc(C)c(Nc4nccc(-c5cccnc5)n4)c3)cc(C(F)(F)F)c2)cn1 [NILOTINIB]
IC50 (KU812 cell line): 1.8 nM
IC50 (U-937): > 1000 nM
IC50 (Jurkat): > 1000 nM

Compound: CN1CCN(Cc2ccc(NC(=O)N3CCC(C#Cc4cnc5cccnn45)C3)cc2C(F)(F)F)CC1 (centres undefined)
viability at 100 µM (BaF3 [1]): 91.9%

Compound: Cc1ccc(C(=O)Nc2ccc3c(c2)C(F)(F)C[C@@H]3N2CCN(C)CC2)cc1C#Cc1cnc2cccnn12
IC50 [5]: 11100 nM
Activity (Salmonella typhimurium [6]): Non-Toxic
Activity (Salmonella typhimurium [7]): Non-Toxic
Activity (Salmonella typhimurium [8]): Non-Toxic
Activity (Salmonella typhimurium [9]): Non-Toxic
Activity [10]: Non-Toxic
MTD at 336 h [11]: 100 mg/kg
Tmax [12]: 5 h
Tmax [13]: 4.8 min
Cmax [14]: 129 ng/mL
Cmax [15]: 1470 ng/mL
AUC(0-t) at 24 h [16]: 1390 ng·h/mL
AUC(0-t) at 24 h [17]: 1390 ng·h/mL
AUC(0-inf) [18]: 1440 ng·h/mL
AUC(0-inf) [19]: 1500 ng·h/mL
MRT [20]: 8.22 h
MRT [21]: 5.11 h
half-life [22]: 4.61 h
half-life [23]: 5.3 h
clearance [24]: 62 mL/min/kg
Vd [25]: 18.1 L/kg
bioavailability [26]: 32%
IC50 [27]: < 10 nM
IC50 [28]: < 10 nM
IC50 [29]: < 10 nM
IC50 [30]: < 10 nM
IC50 [31]: < 10 nM
Activity (Salmonella typhimurium [32]): Non-Toxic

IC50 (K562 [33]): 10 nM
Tmax [12]: 1.5 h
Tmax [13]: 4.8 min
Cmax [14]: 70 ng/mL
Cmax [15]: 270 ng/mL
AUC(0-t) at 24 h [16]: 363 ng·h/mL
AUC(0-t) at 24 h [17]: 497 ng·h/mL
AUC(0-inf) [18]: 432 ng·h/mL
AUC(0-inf) [19]: 528 ng·h/mL
MRT [20]: 5.25 h
MRT [21]: 4.29 h
half-life [22]: 2.84 h
half-life [23]: 3.28 h
clearance [24]: 161 mL/min/kg
Vd [25]: 41 L/kg
bioavailability [26]: 27%
IC50 (BaF3 [2]): 0.9 nM
Compound: Cc1ccc(C(=O)Nc2ccc(CN3CCN(C)CC3)c(C(F)(F)F)c2)cc1C#Cc1cnc2cccnn12 [PONATINIB]
viability at 100 µM (BaF3 [1]): 2.8%
IC50 (KU812 cell line): 0.1 nM
IC50 (U-937): 246 nM
IC50 (Jurkat): 295 nM
inhibition in vivo at 5 mg/kg (BaF3 [34]): 53%

Compound: Cc1ccc(-c2nc3ccc(CN4CCN(C)CC4)cc3[nH]2)cc1C#Cc1ccc(NC(C)C)nn1
viability at 100 µM (BaF3 [1]): 96.5%

Compound: Cc1ccc(C(=O)Nc2ccc3c(c2)C(F)(F)C[C@@H]3N2CCN(C)CC2)cc1C#Cc1cnc2cccnn12.Cl
Activity [35]: Non-Toxic

IC50 (BaF3 [2]): 62.5 nM
IC50 (BaF3 [3]): > 100 nM
IC50 (K562 [4]): 10.4 nM
Compound: Cc1ccc(C(=O)Nc2ccc3c(c2)C(F)(F)C[C@H]3N2CCN(C)CC2)cc1C#Cc1cnc(NC2CC2)nc1
IC50 (KU812 cell line): 5.2 nM
IC50 (U-937): 465 nM
IC50 (Jurkat): 400 nM

Compound: Cc1ccc(-c2nc3ccc(CN4CCN(C)CC4)cc3[nH]2)cc1C#Cc1cnc(NC2CC2)nc1
viability at 100 µM (BaF3 [1]): 90.4%

Compound: CN1CCN(Cc2ccc3nc(-c4ccc(Cl)c(C#Cc5cnc6cccnn56)c4)[nH]c3c2)CC1
viability at 100 µM (BaF3 [1]): 94.5%

IC50 (BaF3 [2]): 3.5 nM
IC50 (BaF3 [3]): 12.4 nM
IC50 (K562 [4]): 0.6 nM
Compound: Cc1ccc(C(=O)Nc2ccc3c(c2)C(F)(F)C[C@@H]3N2CCN(C)CC2)cc1C#Cc1cnc(NC2CC2)nc1
IC50 (KU812 cell line): 0.2 nM
IC50 (U-937): 165 nM
IC50 (Jurkat): 280 nM
